Results from patent US4965280A, “Antifungal carbinols” (E. I. Du Pont de Nemours and Company, priority 1989, dated 1990).

Experiments:
Assay in all cases: Test E
WILD OATS = type: in vivo, Avena fatua
WILD BUCKWHEAT = type: in vivo, Polygonum convolvulus
ITALN. RYEGRASS = type: in vivo, Lolium multiflorum
LAMBSQUARTER = type: in vivo, Chenopodium album
PARK WHEAT = type: in vivo, Triticum aestivum cv. Park
KOCHIA = type: in vivo, Kochia scoparia
SNTLS CHAMOMILE = type: in vivo, Matricaria indora
REDROOT PIGWEED = type: in vivo, Amaranthus retroflexus
CTCHWD BEDSTRAW = type: in vivo, Galium aparine

## C=C(c1ccccc1)C(O)(Cn1cncn1)c1ccc(Cl)cc1 (stereo not drawn) [Example 51, 2-(4-Chlorophenyl)-3-phenyl-1-(1H-1,2,4-triazol-1-yl)-3-buten-2-ol]
WILD OATS; POSTEMERGENCE 0064 GM/HA
  plant response: 0%
WILD OATS; POSTEMERGENCE 0125 GM/HA
  plant response: 0%
WILD OATS; POSTEMERGENCE 0250 GM/HA
  plant response: 0%
WILD OATS; POSTEMERGENCE 0500 GM/HA
  plant response: 0%
WILD OATS; PREEMERGENCE 0500 GM/HA
  plant response: 20%
WILD BUCKWHEAT; POSTEMERGENCE 0064 GM/HA
  plant response: 0%
WILD BUCKWHEAT; POSTEMERGENCE 0125 GM/HA
  plant response: 0%
WILD BUCKWHEAT; POSTEMERGENCE 0250 GM/HA
  plant response: 0%
WILD BUCKWHEAT; POSTEMERGENCE 0500 GM/HA
  plant response: 0%
WILD BUCKWHEAT; PREEMERGENCE 0500 GM/HA
  plant response: 0%
ITALN. RYEGRASS; POSTEMERGENCE 0064 GM/HA
  plant response: 0%
ITALN. RYEGRASS; POSTEMERGENCE 0125 GM/HA
  plant response: 20%
ITALN. RYEGRASS; POSTEMERGENCE 0250 GM/HA
  plant response: 20%
ITALN. RYEGRASS; POSTEMERGENCE 0500 GM/HA
  plant response: 0%
ITALN. RYEGRASS; PREEMERGENCE 0500 GM/HA
  plant response: 0%
LAMBSQUARTER; POSTEMERGENCE 0064 GM/HA
  plant response: 0%
LAMBSQUARTER; POSTEMERGENCE 0125 GM/HA
  plant response: 0%
LAMBSQUARTER; POSTEMERGENCE 0250 GM/HA
  plant response: 20%
LAMBSQUARTER; POSTEMERGENCE 0500 GM/HA
  plant response: 40%
LAMBSQUARTER; PREEMERGENCE 0500 GM/HA
  plant response: 100%
PARK WHEAT; POSTEMERGENCE 0064 GM/HA
  plant response: 0%
PARK WHEAT; POSTEMERGENCE 0125 GM/HA
  plant response: 0%
PARK WHEAT; POSTEMERGENCE 0250 GM/HA
  plant response: 0%
PARK WHEAT; POSTEMERGENCE 0500 GM/HA
  plant response: 0%
PARK WHEAT; PREEMERGENCE 0500 GM/HA
  plant response: 0%
KOCHIA; POSTEMERGENCE 0064 GM/HA
  plant response: 0%
KOCHIA; POSTEMERGENCE 0125 GM/HA
  plant response: 0%
KOCHIA; POSTEMERGENCE 0250 GM/HA
  plant response: 0%
KOCHIA; POSTEMERGENCE 0500 GM/HA
  plant response: 0%
KOCHIA; PREEMERGENCE 0500 GM/HA
  plant response: 70%
SNTLS CHAMOMILE; POSTEMERGENCE 0064 GM/HA
  plant response: 0%
SNTLS CHAMOMILE; POSTEMERGENCE 0125 GM/HA
  plant response: 20%
SNTLS CHAMOMILE; POSTEMERGENCE 0250 GM/HA
  plant response: 40%
SNTLS CHAMOMILE; POSTEMERGENCE 0500 GM/HA
  plant response: 60%
SNTLS CHAMOMILE; PREEMERGENCE 0500 GM/HA
  plant response: 100%
REDROOT PIGWEED; POSTEMERGENCE 0064 GM/HA
  plant response: 30%
REDROOT PIGWEED; POSTEMERGENCE 0125 GM/HA
  plant response: 50%
REDROOT PIGWEED; POSTEMERGENCE 0250 GM/HA
  plant response: 60%
REDROOT PIGWEED; POSTEMERGENCE 0500 GM/HA
  plant response: 90%
REDROOT PIGWEED; PREEMERGENCE 0500 GM/HA
  plant response: 70%
CTCHWD BEDSTRAW; POSTEMERGENCE 0064 GM/HA
  plant response: 0%
CTCHWD BEDSTRAW; POSTEMERGENCE 0125 GM/HA
  plant response: 0%
CTCHWD BEDSTRAW; POSTEMERGENCE 0250 GM/HA
  plant response: 0%
CTCHWD BEDSTRAW; POSTEMERGENCE 0500 GM/HA
  plant response: 50%
CTCHWD BEDSTRAW; PREEMERGENCE 0500 GM/HA
  plant response: 0%

## C=C(c1ccccc1)C(O)(Cn1cncn1)c1ccc(F)cc1F (stereo not drawn) [Example 52, 2-(2,4-Difluorophenyl)-3-phenyl-1-(1H-1,2,4-triazol-1-yl)-3-buten-2-ol]
WILD OATS; POSTEMERGENCE 0064 GM/HA
  plant response: 0%
WILD OATS; POSTEMERGENCE 0125 GM/HA
  plant response: 0%
WILD OATS; POSTEMERGENCE 0250 GM/HA
  plant response: 20%
WILD OATS; POSTEMERGENCE 0500 GM/HA
  plant response: 30%
WILD OATS; PREEMERGENCE 0250 GM/HA
  plant response: 70%
WILD BUCKWHEAT; POSTEMERGENCE 0064 GM/HA
  plant response: 0%
WILD BUCKWHEAT; POSTEMERGENCE 0125 GM/HA
  plant response: 0%
WILD BUCKWHEAT; POSTEMERGENCE 0250 GM/HA
  plant response: 0%
WILD BUCKWHEAT; POSTEMERGENCE 0500 GM/HA
  plant response: 30%
WILD BUCKWHEAT; PREEMERGENCE 0250 GM/HA
  plant response: 20%
ITALN. RYEGRASS; POSTEMERGENCE 0064 GM/HA
  plant response: 0%
ITALN. RYEGRASS; POSTEMERGENCE 0125 GM/HA
  plant response: 20%
ITALN. RYEGRASS; POSTEMERGENCE 0250 GM/HA
  plant response: 50%
ITALN. RYEGRASS; POSTEMERGENCE 0500 GM/HA
  plant response: 80%
ITALN. RYEGRASS; PREEMERGENCE 0250 GM/HA
  plant response: 70%
LAMBSQUARTER; POSTEMERGENCE 0064 GM/HA
  plant response: 0%
LAMBSQUARTER; POSTEMERGENCE 0125 GM/HA
  plant response: 0%
LAMBSQUARTER; POSTEMERGENCE 0250 GM/HA
  plant response: 0%
LAMBSQUARTER; POSTEMERGENCE 0500 GM/HA
  plant response: 10%
LAMBSQUARTER; PREEMERGENCE 0250 GM/HA
  plant response: 100%
PARK WHEAT; POSTEMERGENCE 0064 GM/HA
  plant response: 30%
PARK WHEAT; POSTEMERGENCE 0125 GM/HA
  plant response: 30%
PARK WHEAT; POSTEMERGENCE 0250 GM/HA
  plant response: 40%
PARK WHEAT; POSTEMERGENCE 0500 GM/HA
  plant response: 50%
PARK WHEAT; PREEMERGENCE 0250 GM/HA
  plant response: 70%
KOCHIA; POSTEMERGENCE 0064 GM/HA
  plant response: 0%
KOCHIA; POSTEMERGENCE 0125 GM/HA
  plant response: 0%
KOCHIA; POSTEMERGENCE 0250 GM/HA
  plant response: 0%
KOCHIA; POSTEMERGENCE 0500 GM/HA
  plant response: 70%
KOCHIA; PREEMERGENCE 0250 GM/HA
  plant response: 0%
SNTLS CHAMOMILE; POSTEMERGENCE 0064 GM/HA
  plant response: 20%
SNTLS CHAMOMILE; POSTEMERGENCE 0125 GM/HA
  plant response: 50%
SNTLS CHAMOMILE; POSTEMERGENCE 0250 GM/HA
  plant response: 50%
SNTLS CHAMOMILE; POSTEMERGENCE 0500 GM/HA
  plant response: 85%
SNTLS CHAMOMILE; PREEMERGENCE 0250 GM/HA
  plant response: 100%
REDROOT PIGWEED; POSTEMERGENCE 0064 GM/HA
  plant response: 0%
REDROOT PIGWEED; POSTEMERGENCE 0125 GM/HA
  plant response: 50%
REDROOT PIGWEED; POSTEMERGENCE 0250 GM/HA
  plant response: 90%
REDROOT PIGWEED; POSTEMERGENCE 0500 GM/HA
  plant response: 90%
REDROOT PIGWEED; PREEMERGENCE 0250 GM/HA
  plant response: 100%
CTCHWD BEDSTRAW; POSTEMERGENCE 0064 GM/HA
  plant response: 20%
CTCHWD BEDSTRAW; POSTEMERGENCE 0125 GM/HA
  plant response: 80%
CTCHWD BEDSTRAW; POSTEMERGENCE 0250 GM/HA
  plant response: 70%
CTCHWD BEDSTRAW; POSTEMERGENCE 0500 GM/HA
  plant response: 100%
CTCHWD BEDSTRAW; PREEMERGENCE 0250 GM/HA
  plant response: 100%
